The record followed here is patent US12310975B2, “Modulators of BCL6 proteolysis and associated methods of use” (Arvinas Operations, Inc., priority 2019, dated 2025).

For experiment [1], the target named is T1, BCL6 (Homo sapiens (Human), UniProt P41182). Nature of the experiment: BCL6 TR-FRET assay (BCL6-Avitag-Biotin / BCoR-Cy5 peptide). The conditions noted are these: read-out: IC50. It counts as binding. The method, boiled down:
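After 30 min room-temperature preincubation of compound titrations with 2 nM biotinylated BCL6-Avitag, 100 nM Cy5-labelled BCoR peptide plus 2 nM Eu-streptavidin were added and TR-FRET read 2 h later. HEPES pH 7.5/125 mM NaCl buffer with Triton X, glutathione (or DTT) and BSA.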

Experiment [2] has as its target T1, BCL6. Nature of the experiment: Immunofluorescence high content imaging of BCL6 degradation in T47D cells. It counts as cell-based. The conditions noted are these: T47D. In outline: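 T47D, 3 d compound exposure, 11-pt 3-fold series, top 0.1 or 1 μM final. Fix 4% PFA, Triton permeabilize, anti-BCL6 primary overnight 4 °C, Alexa-488 secondary. High-content imaging 10×, 4 fields/well, top-hat smoothing.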

The structures appear in SMILES notation. pIC50: −log10 of the molar value.

As for `CNC(=O)COc1cc2cc(Nc3nc(N4CCN(CC5CCN(c6cc(OC)cc(C(=O)NC7CCC(=O)NC7=O)c6F)CC5)CC4)ncc3Cl)ccc2n(C(C)C)c1=O` (stereo not drawn) [compound 473, 3-[4-({4-[5-chloro-4-({3-[(methylcarbamoyl)methoxy]-2-oxo-1-(propan-2-yl)-1,2-dihydroquinolin-6-yl}amino)pyrimidin-2-yl]piperazin-1-yl}methyl)piperidin-1-yl]-N-(2,6-dioxopiperidin-3-yl)-2-fluoro-5-methoxybenzamide], on BCL6 [1], the pIC50 was > 8.00. For the same compound, the Dmax on BCL6 [2] lay in the range of 50 to 70%.

With `CNC(=O)COc1cc2cc(Nc3nc(N4CCOCC4)ncc3Cl)ccc2n(CCCOc2ccc3c(c2)C(=O)N(C2CCC(=O)NC2=O)C3=O)c1=O` (stereo not drawn) [compound 474, 2-[(6-{[5-chloro-2-(morpholin-4-yl)pyrimidin-4-yl]amino}-1-(3-{[2-(2,6-dioxopiperidin-3-yl)-1,3-dioxo-2,3-dihydro-1H-isoindol-5-yl]oxy}propyl)-2-oxo-1,2-dihydroquinolin-3-yl)oxy]-N-methylacetamide], the pIC50 on BCL6 [1] is 7.00 to 7.30. Besides, at BCL6 [2], the Dmax was < 50%.

As for `CNC(=O)COc1cc2cc(Nc3nc(N4CCOCC4)ncc3Cl)ccc2n(CCOc2ccc3c(c2)C(=O)N(C2CCC(=O)NC2=O)C3=O)c1=O` (stereo not drawn) [compound 475, 2-[(6-{[5-chloro-2-(morpholin-4-yl)pyrimidin-4-yl]amino}-1-(2-{[2-(2,6-dioxopiperidin-3-yl)-1,3-dioxo-2,3-dihydro-1H-isoindol-5-yl]oxy}ethyl)-2-oxo-1,2-dihydroquinolin-3-yl)oxy]-N-methylacetamide], the pIC50 at BCL6 [1] is ≤ 7.00. The Dmax at BCL6 [2] was ≥ 70%.

As to `CNC(=O)COc1cc2cc(Nc3nc(N4CCC(O[C@H]5C[C@@H](COc6cccc7c6C(=O)N(C6CCC(=O)NC6=O)C7=O)N(C)C5)CC4)ncc3Cl)ccc2n(C(C)C)c1=O` (stereo partly drawn) [compound 476, 2-[(6-{[5-chloro-2-(4-{[(3S,5S)-5-({[2-(2,6-dioxopiperidin-3-yl)-1,3-dioxo-2,3-dihydro-1H-isoindol-4-yl]oxy}methyl)-1-methylpyrrolidin-3-yl]oxy}piperidin-1-yl)pyrimidin-4-yl]amino}-2-oxo-1-(propan-2-yl)-1,2-dihydroquinolin-3-yl)oxy]-N-methylacetamide], at BCL6 [1], the pIC50 is 7.30 to 8.00. Further, the maximal degradation (Dmax) at BCL6 [2] was < 50%.

`CNC(=O)COc1cc2cc(Nc3nc(N4CCC(O[C@H]5C[C@@H](Oc6cccc7c6C(=O)N(C6CCC(=O)NC6=O)C7=O)CN(C)C5)CC4)ncc3Cl)ccc2n(C(C)C)c1=O` (stereo partly drawn) [compound 477, 2-[(6-{[5-chloro-2-(4-{[(3S,5R)-5-{[2-(2,6-dioxopiperidin-3-yl)-1,3-dioxo-2,3-dihydro-1H-isoindol-4-yl]oxy}-1-methylpiperidin-3-yl]oxy}piperidin-1-yl)pyrimidin-4-yl]amino}-2-oxo-1-(propan-2-yl)-1,2-dihydroquinolin-3-yl)oxy]-N-methylacetamide]: the pIC50 at BCL6 [1] is 7.30 to 8.00. At BCL6 [2], the Dmax is < 50%.

With `CNC(=O)COc1cc2cc(Nc3nc(N4CCC(C5(N6CCC(c7cc(OC)cc(C(=O)NC8CCC(=O)NC8=O)c7F)CC6)CC5)CC4)ncc3Cl)ccc2n(C)c1=O` (stereo not drawn) [compound 480, 3-[1-(1-{1-[5-chloro-4-({1-methyl-3-[(methylcarbamoyl)methoxy]-2-oxo-1,2-dihydroquinolin-6-yl}amino)pyrimidin-2-yl]piperidin-4-yl}cyclopropyl)piperidin-4-yl]-N-(2,6-dioxopiperidin-3-yl)-2-fluoro-5-methoxybenzamide], at BCL6 [1], the pIC50 is 7.30 to 8.00. Moreover, the Dmax at BCL6 [2] is < 50%.

Regarding `CNC(=O)COc1cc2cc(Nc3nc(N4CCN(C(C)(C)C5CCN(c6c(OC)ccc(C(=O)NC7CCC(=O)NC7=O)c6F)CC5)CC4)ncc3Cl)ccc2n(C)c1=O` (stereo not drawn) [compound 481, 3-[4-(2-{4-[5-chloro-4-({1-methyl-3-[(methylcarbamoyl)methoxy]-2-oxo-1,2-dihydroquinolin-6-yl}amino)pyrimidin-2-yl]piperazin-1-yl}propan-2-yl)piperidin-1-yl]-N-(2,6-dioxopiperidin-3-yl)-2-fluoro-4-methoxybenzamide], the pIC50 at BCL6 [1] was > 8.00. Besides, at BCL6 [2], the Dmax was ≥ 70%.

For the compound `CNC(=O)COc1cc2cc(Nc3nc(N4CCC5(CC4)CC(CN4CCN(c6ccc7c(c6)C(=O)N(C6CCC(=O)NC6=O)C7=O)CC4)C5)ncc3Cl)ccc2n(C(C)C)c1=O` (stereo not drawn) [compound 483, 2-{[6-({5-chloro-2-[2-({4-[2-(2,6-dioxopiperidin-3-yl)-1,3-dioxo-2,3-dihydro-1H-isoindol-5-yl]piperazin-1-yl}methyl)-7-azaspiro[3.5]nonan-7-yl]pyrimidin-4-yl}amino)-2-oxo-1-(propan-2-yl)-1,2-dihydroquinolin-3-yl]oxy}-N-methylacetamide], the pIC50 on BCL6 [1] is > 8.00. The same compound gave a Dmax at BCL6 [2] of 50 to 70%.

On to `CNC(=O)COc1cc2cc(Nc3nc(N4CCC5(CC4)CC(CN4CCN(c6cccc7c6C(=O)N(C6CCC(=O)NC6=O)C7=O)CC4)C5)ncc3Cl)ccc2n(C(C)C)c1=O` (stereo not drawn) [compound 484, 2-{[6-({5-chloro-2-[2-({4-[2-(2,6-dioxopiperidin-3-yl)-1,3-dioxo-2,3-dihydro-1H-isoindol-4-yl]piperazin-1-yl}methyl)-7-azaspiro[3.5]nonan-7-yl]pyrimidin-4-yl}amino)-2-oxo-1-(propan-2-yl)-1,2-dihydroquinolin-3-yl]oxy}-N-methylacetamide], for which the pIC50 on BCL6 [1] was > 8.00. This compound displayed a Dmax on BCL6 [2] of 50 to 70%.

In the case of `CNC(=O)COc1cc2cc(Nc3nc(N4CCN(CC5CCN(c6cccc7c6C(=O)N(C6CCC(=O)NC6=O)C7=O)CC5)CC4)ncc3Cl)ccc2n(CC2COC2)c1=O` (stereo not drawn) [compound 485, 2-{[6-({5-chloro-2-[4-({1-[2-(2,6-dioxopiperidin-3-yl)-1,3-dioxo-2,3-dihydro-1H-isoindol-4-yl]piperidin-4-yl}methyl)piperazin-1-yl]pyrimidin-4-yl}amino)-1-[(oxetan-3-yl)methyl]-2-oxo-1,2-dihydroquinolin-3-yl]oxy}-N-methylacetamide], the pIC50 at BCL6 [1] is > 8.00. Further, at BCL6 [2], the Dmax is 50 to 70%.

As for `CNC(=O)COc1cc2cc(Nc3nc(N4CCC(C5(N6CCC(c7ccc8c(c7)C(=O)N(C7CCC(=O)NC7=O)C8=O)CC6)CC5)CC4)ncc3Cl)ccc2n(C(C)C)c1=O` (stereo not drawn) [compound 488, 2-{[6-({5-chloro-2-[4-(1-{4-[2-(2,6-dioxopiperidin-3-yl)-1,3-dioxo-2,3-dihydro-1H-isoindol-5-yl]piperidin-1-yl}cyclopropyl)piperidin-1-yl]pyrimidin-4-yl}amino)-2-oxo-1-(propan-2-yl)-1,2-dihydroquinolin-3-yl]oxy}-N-methylacetamide], the pIC50 at BCL6 [1] is > 8.00. The compound further gave a Dmax at BCL6 [2] of 50 to 70%.

For `CNC(=O)COc1cc2cc(Nc3nc(N4CCC(CN5CCC6(CC5)CCN(c5ccc7c(c5)C(=O)N(C5CCC(=O)NC5=O)C7=O)C6)CC4)ncc3Cl)ccc2n(C(C)C)c1=O` (stereo not drawn) [compound 489, 2-{[6-({5-chloro-2-[4-({2-[2-(2,6-dioxopiperidin-3-yl)-1,3-dioxo-2,3-dihydro-1H-isoindol-5-yl]-2,8-diazaspiro[4.5]decan-8-yl}methyl)piperidin-1-yl]pyrimidin-4-yl}amino)-2-oxo-1-(propan-2-yl)-1,2-dihydroquinolin-3-yl]oxy}-N-methylacetamide], the pIC50 on BCL6 [1] is > 8.00. Also, on BCL6 [2], the Dmax is 50 to 70%.
